Key:
USSR H1N1 virus [1] = type: cell-based, influenza A virus (A/USSR/77)
USSR H1N1 virus [2] = type: cell-based, influenza A virus (A/USSR/77); remark: listed apart in the source
NPTr cells = details: for cell viability after priming: 30 min priming at doses used for infection studies
[3] = tested on: extracellular Ca^2+ influx; test: Intracellular Ca2+ monitoring assay (Fluo-8) in NPTr cells; type: cell-based, pig
SARS-CoV-2 = SARS-CoV-2 replication in Calu-3 cells (RT-qPCR of media); type: cell-based; details: Calu-3 cells; […]; HC primed and continuously present
human coronavirus OC43 = type: cell-based; details: MRC-5 cells; TG 0.05 or 0.5 μM 30 min pre-infection; HC pre-infection or continuous
A549 cells = test: Cell viability of A549 cells (CellTiter-Glo 2.0); type: cell-based, human; details: RDV continuous, TG 30 min, overnight
Description: (A) A549 cells were primed with indicated TG, 0.3 μM RDV or DMSO control for 30 min, washed twice with PBS and infected with 0.01 MOI of CoV OC43 for 2 h, after which cells were washed again with PBS and incubated in fresh infection media (OptiMEM supplemented with 0.1 μg/ml TPCK-trypsin for TG primed cells, or fresh media in the continuous presence of RDV. At 24, 48 and 72 hpi, viral RNA extraction was performed on collected supernatants followed by one-step reverse transcription qPCR to detect the relative copy number of hCoV OC43 replicase polyprotein lab RNA, based on relative Ct method. Indicated significance relative to corresponding RDV-treated cells based on 2-way ANOVA Tukey's multiple comparisons test. (B) As in (A), A549 cells were primed continuously with RDV, or for 30 min with indicated TG or DMSO, washed, cultured overnight and subjected to cell viability assay (CellTiter-Glo 2.0 Cell Viability Assay, Promega).

[4] = tested on: RSV (A2 strain, ATCC VR-1540); test: RSV production from infected HEp2 cells (immuno-detection / RT-qPCR); type: cell-based, human respiratory syncytial virus; details: HEp-2 cells; TG 30 min priming, Riba continuously present; four days post-infection
pdm H1N1 virus = type: cell-based, influenza A virus (A/California/07/2009)
RIG-I, OAS1 and PKR = type: cell-based, pig; details: NPTr cells (TG also NHBE cells and myoblasts); priming before or during infection

With `CC1=C2CC[C@@H](C)[C@H]2[C@H]2[C@@H](CC1)C2(C)C` [(+)-ledene, reference compound] the “progeny virus output” value (USSR H1N1 virus [1]) was “dramatic reduction in progeny virus output” and the “progeny virus output vs DMSO control” value (USSR H1N1 virus [2]) was “reduced virus production like that of TG”.
`Cc1nnsc1C(=O)Nc1ccc(-n2nc(C(F)(F)F)cc2C(F)(F)F)cc1` [BTP2] was tested, and the “cell viability after priming” value (NPTr cells) was “Non-toxic” and the “progeny virus output vs DMSO control” value (USSR H1N1 virus [2]) was “small increase in progeny virus release”.
For `CC(=O)C1=C(O)[C@@H]2[C@H]3c4c[nH]c5cccc(c45)C[C@H]3C(C)(C)N2C1=O` [CPA, Cyclopiazonic acid], the “reduction in ATP production” value (NPTr cells; 5 μM CPA for 30 min, 24 h incubation) was 8.3% and the “concentration from which Ca^2+ influx was detected” value [3] was at least 10 µM.
For `CCN(CCO)CCCC(C)Nc1ccnc2cc(Cl)ccc12` (stereo not drawn) [HC, hydroxychloroquine, reference compound], the “SARS-CoV-2 replication” value (SARS-CoV-2) was “no consistent effect” and the “hCoV OC43 replication / progeny production” value (human coronavirus OC43) was “required its continuous presence during infection”.
In the case of `CCC(CC)COC(=O)[C@H](C)N[P@](=O)(OC[C@H]1O[C@@](C#N)(c2ccc3c(N)ncnn23)[C@H](O)[C@@H]1O)Oc1ccccc1` [RDV, remdesivir, reference compound], the “cell viability” value (A549 cells) is reported as “no adverse effect on cell viability”.
For `NC(=O)c1ncn([C@@H]2O[C@H](CO)[C@@H](O)[C@H]2O)n1` [Riba, ribavirin, reference compound], the “RSV progeny virus production, viral M-gene RNA” value [4] was “significantly inhibited”.
In the case of `COc1ccc(OC)c(-c2ccc(NC(=O)c3ccncc3F)cc2)c1` [Synta66], the “cell viability after priming” value (NPTr cells) is reported as “Non-toxic” and the “progeny virus output vs DMSO control” value (USSR H1N1 virus [2]) is reported as “small increase in progeny virus release”.
In the case of `C[C@@H]1CC[C@H]2[C@@H](C)C(=O)O[C@@H]3O[C@@]4(C)CC[C@@H]1[C@]32OO4` [artemisinin], the “progeny virus output vs DMSO control” value (pdm H1N1 virus) is reported as “reduces progeny viral output” and the “progeny virus output vs DMSO control” value (USSR H1N1 virus [2]) is reported as “reduces progeny viral output”.
For `C=C1C(=O)O[C@@H]2[C@H]3C(C)=CC(=O)C3=C(C)CC[C@@H]12` [dehydroleucodine, reference compound], the “progeny virus output” value (USSR H1N1 virus [1]) was “reduced progeny virus output” and the “progeny virus output vs DMSO control” value (USSR H1N1 virus [2]) was “reduced virus production like that of TG”.
With `CC1=C2[C@H](/C=C(\C)C(=O)O)CC[C@@H](C)[C@H]2CC1` [valerenic acid] the “progeny virus output vs DMSO control” value (USSR H1N1 virus [2]) was “reduced USSR H1N1 virus production like that of TG”.
For tunicamycin, the “cell viability after priming” value (NPTr cells) was “did not affect cell viability”, the “progeny virus output vs DMSO control” value (pdm H1N1 virus) was “only slightly reduced virus production” and the “virus production relative to correspondingly infected TG primed cells” value (pdm H1N1 virus; NPTr cells, […]) was 2.8 times. The “progeny virus output vs DMSO control” value (USSR H1N1 virus [2]) was “only slightly reduced virus production”, the “virus production relative to correspondingly infected TG primed cells” value (USSR H1N1 virus [2]; NPTr cells, […]) was 7.5 times and the “extracellular Ca^2+ influx” value ([3]; non-toxic doses (CPA up to 5 μM; TG 10 min)) was “did not induce Ca^2+ influx”. For the same molecule, the “expression of type I IFN associated genes in response to infection” value (RIG-I, OAS1 and PKR) was “little change in the expression of type I IFN associated genes”.
